The results in this text go back to PubChem BioAssay AID278 (DTP/NCI, 2004).

“And” between values parts separate entries of the source, which are not always exact repeats. Equal values may be shown once. Inconclusive results are not listed.

The test system of this assay is nude mice, A549 intrarenal xenograft, tumor weight change. As to the kind of experiment: NCI In Vivo Anticancer Drug Screen. Data for tumor model A549 Human Adenocarcinoma of Lung with characteristics of Type II Alveolar Epithelial cells (intrarenal inoculation) in NU/NU BALB/C (nude) mice. The note with it: endpoint: mean tumor weight change, higher = larger tumour. The protocol: The antitumor activity of compounds was measured in mice bearing transplantable tumors. Survival or tumor size were measured and the results are expressed as the measurement made in the treated group (T) divided by the measurement made in the vehicle treated control group (C). The tumor model used in this assay is A549 Human Adenocarcinoma of Lung with characteristics of Type II Alveolar Epithelial cells (intrarenal inoculation) in NU/NU BALB/C (nude) mice

Where [1] appears, read: dose: 25.0 mg/kg/injection, schedule: Q04DX003 (ip), vehicle: saline.
Setting [2] is: dose: 50.0 mg/kg/injection, schedule: Q04DX003 (ip), vehicle: saline.
Where [3] appears, read: dose: 100.0 mg/kg/injection, schedule: Q04DX003 (ip), vehicle: saline with Tween-80.
Where [4] appears, read: dose: 12.5 mg/kg/injection, schedule: Q04DX003 (ip), vehicle: saline.
The mark [5] stands for this setting: dose: 15.0 mg/kg/injection, schedule: Q04DX003 (ip), vehicle: saline.
The mark [6] stands for this setting: dose: 30.0 mg/kg/injection, schedule: Q04DX003 (ip), vehicle: saline.
Where [7] appears, read: dose: 60.0 mg/kg/injection, schedule: Q04DX003 (ip), vehicle: saline.

Regarding `Cc1cc(NC(=S)SCc2ccc3c(c2)OCO3)ccc1Cl`, the T/C was 61 % of control (dose: 300.0 mg/kg/injection, schedule: Q04DX003 (ip), vehicle: Klucel (hydroxypropylcellulose) (HPC)) and 73 % of control (dose: 600.0 mg/kg/injection, schedule: Q04DX003 (ip), vehicle: Klucel (hydroxypropylcellulose) (HPC)).
As to `Cc1ccc(C(=O)Nc2ccc(S(=O)(=O)O)c3cc(S(=O)(=O)O)cc(S(=O)(=O)O)c23)cc1NC(=O)c1cccc(NC(=O)Nc2cccc(C(=O)Nc3cc(C(=O)Nc4ccc(S(=O)(=O)O)c5cc(S(=O)(=O)O)cc(S(=O)(=O)O)c45)ccc3C)c2)c1`, the T/C was 99 % of control under setting [1]; 100 % of control under setting [2]; 112 % of control (dose: 100.0 mg/kg/injection, schedule: Q04DX003 (ip), vehicle: saline).
Take `Nc1ccn([C@@H]2C=C(CO)[C@@H](O)[C@H]2O)c(=O)n1`: the T/C is, setting by setting: (dose: 0.67 mg/kg/injection, schedule: Q01DX009 (ip), vehicle: saline) 58 % of control; (dose: 1.0 mg/kg/injection, schedule: Q01DX009 (ip), vehicle: saline) 20 % of control and 40 % of control; (dose: 1.5 mg/kg/injection, schedule: Q01DX009 (ip), vehicle: saline) -59 % of control; (dose: 2.0 mg/kg/injection, schedule: Q01DX009 (ip), vehicle: saline) 8 % of control.
In the case of `O=C(Oc1ccccc1)c1cc(O)c(O)c(O)c1`, the T/C by setting is: (dose: 18.75 mg/kg/injection, schedule: Q04DX003 (ip), vehicle: saline) 60 % of control; (dose: 37.5 mg/kg/injection, schedule: Q04DX003 (ip), vehicle: saline) 80 % of control; (dose: 75.0 mg/kg/injection, schedule: Q04DX003 (ip), vehicle: saline) 50 % of control; (dose: 150.0 mg/kg/injection, schedule: Q04DX003 (ip), vehicle: saline) 62 % of control.
In the case of `CC1OC2CC(O)C1(O)C1=C2C(O)=C(C(N)=O)C(=N)C1=O` (centres undefined), the T/C reads like this: (dose: 0.63 mg/kg/injection, schedule: Q04DX003 (ip), vehicle: saline + alcohol) 66 % of control; (dose: 1.25 mg/kg/injection, schedule: Q04DX003 (ip), vehicle: saline + alcohol) 48 % of control; (dose: 2.5 mg/kg/injection, schedule: Q04DX003 (ip), vehicle: saline + alcohol) 35 % of control; (dose: 5.0 mg/kg/injection, schedule: Q04DX003 (ip), vehicle: saline + alcohol) 94 % of control.
Consider `ClCCCSSCCCCl`, for which the T/C by setting is: (dose: 62.5 mg/kg/injection, schedule: Q04DX003 (ip), vehicle: saline with Tween-80) 56 % of control; (dose: 125.0 mg/kg/injection, schedule: Q04DX003 (ip), vehicle: saline with Tween-80) 76 % of control; (dose: 250.0 mg/kg/injection, schedule: Q04DX003 (ip), vehicle: saline with Tween-80) 81 % of control; (dose: 500.0 mg/kg/injection, schedule: Q04DX003 (ip), vehicle: saline with Tween-80) 82 % of control.
Consider `CC(C)(C[NH-])C[NH-].[Cl][Pt+2][Cl]`, for which the T/C is, setting by setting: (dose: 1.5 mg/kg/injection, schedule: Q04DX003 (ip), vehicle: water) 40 % of control; (dose: 3.0 mg/kg/injection, schedule: Q04DX003 (ip), vehicle: water) 70 % of control; (dose: 6.0 mg/kg/injection, schedule: Q04DX003 (ip), vehicle: water) 62 % of control; (dose: 12.0 mg/kg/injection, schedule: Q04DX003 (ip), vehicle: water) 52 % of control.
On to `c1ccc([Te][Te]c2ccccc2)cc1`, for which the T/C is 71 % of control (dose: 9.38 mg/kg/injection, schedule: Q04DX003 (ip), vehicle: saline with Tween-80); 59 % of control (dose: 18.75 mg/kg/injection, schedule: Q04DX003 (ip), vehicle: saline with Tween-80); 122 % of control (dose: 37.5 mg/kg/injection, schedule: Q04DX003 (ip), vehicle: saline with Tween-80).
Consider `CCCCCC[Se][Se]CCCCCC`, for which the T/C (dose: 10.0 mg/kg/injection, schedule: Q04DX003 (ip), vehicle: Klucel (hydroxypropylcellulose) (HPC)) is 106 % of control; the T/C (dose: 20.0 mg/kg/injection, schedule: Q04DX003 (ip), vehicle: Klucel (hydroxypropylcellulose) (HPC)) is 38 % of control; the T/C (dose: 40.0 mg/kg/injection, schedule: Q04DX003 (ip), vehicle: Klucel (hydroxypropylcellulose) (HPC)) is 70 % of control; the T/C (dose: 80.0 mg/kg/injection, schedule: Q04DX003 (ip), vehicle: Klucel (hydroxypropylcellulose) (HPC)) was 71 % of control.
For the molecule `COc1ccc2oc3c(ccc[n+]3C)c(=O)c2c1`, the T/C is, setting by setting: under setting [3], 57 % of control; (dose: 200.0 mg/kg/injection, schedule: Q04DX003 (ip), vehicle: saline with Tween-80) 38 % of control; (dose: 400.0 mg/kg/injection, schedule: Q04DX003 (ip), vehicle: saline with Tween-80) 32 % of control.
`COc1cccc(Sc2ccc([N+](=O)[O-])c3no[n+]([O-])c23)c1`: the T/C runs as follows: (dose: 75.0 mg/kg/injection, schedule: Q04DX003 (ip), vehicle: saline with Tween-80) 49 % of control; (dose: 150.0 mg/kg/injection, schedule: Q04DX003 (ip), vehicle: saline with Tween-80) 86 % of control.
`CN1COc2c(n(C)c(=O)[nH]c2=O)C1`: the T/C reads like this: (dose: 150.0 mg/kg/injection, schedule: Q04DX003 (ip), vehicle: suspension in saline) 97 % of control; (dose: 300.0 mg/kg/injection, schedule: Q04DX003 (ip), vehicle: suspension in saline) 46 % of control; (dose: 600.0 mg/kg/injection, schedule: Q04DX003 (ip), vehicle: suspension in saline) 88 % of control; (dose: 1200.0 mg/kg/injection, schedule: Q04DX003 (ip), vehicle: suspension in saline) 67 % of control.
In the case of `CC1/C=C/C=C/CC/C=C/C=C/C=C/C=C/C(OC2OC(C)C(O)C(N)C2O)CC2OC(CC(O)C(O)CCC(O)CC(O)CC(O)CC(=O)OC(C)C(C)C1O)CC(O)C2C(=O)O` (centres undefined), the T/C by setting is: (dose: 25.0 mg/kg/injection, schedule: Q04DX003 (ip), vehicle: saline with Tween-80) 97 % of control; (dose: 50.0 mg/kg/injection, schedule: Q04DX003 (ip), vehicle: saline with Tween-80) 69 % of control; under setting [3], 62 % of control.
Turning to `c1nnc(NCNc2nncs2)s1`, the T/C is, setting by setting: (dose: 100.0 mg/kg/injection, schedule: Q04DX003 (ip), vehicle: suspension in saline) 61 % of control; (dose: 144.0 mg/kg/injection, schedule: Q04DX003 (ip), vehicle: Klucel (hydroxypropylcellulose) (HPC)) 36 % of control; (dose: 200.0 mg/kg/injection, schedule: Q04DX003 (ip), vehicle: suspension in saline) 23 % of control; (dose: 240.0 mg/kg/injection, schedule: Q04DX003 (ip), vehicle: Klucel (hydroxypropylcellulose) (HPC)) 23 % of control; (dose: 400.0 mg/kg/injection, schedule: Q04DX003 (ip), vehicle: suspension in saline) 20 % of control.
`O=C1c2cccc(NCCCNCCO)c2C(=O)c2cccc(NCCCNCCO)c21`: the T/C is 108 % of control (dose: 12.5 mg/kg/injection, schedule: Q04DX003 (ip), vehicle: acid diluted with saline) and 70 % of control (dose: 25.0 mg/kg/injection, schedule: Q04DX003 (ip), vehicle: acid diluted with saline).
Take `CC(=O)/C(=C\c1ccc(Cl)c(Cl)c1)C(=O)CCN(C)C`: the T/C under setting [4] was 78 % of control, the T/C under setting [1] was 39 % of control and the T/C under setting [2] was 32 % of control.
Take `CCN(CC)CC(C)(C)C(=O)/C=C/c1ccc(/C=C/C(=O)C(C)(C)CN(CC)CC)cc1`: the T/C under setting [5] is 84 % of control, the T/C under setting [6] was 73 % of control and the T/C under setting [7] is 82 % of control.
For `COc1cccc2c1C(CO)N1C(C#N)C3CC(C(=O)O)C(C1C2)N3C` (centres undefined), the T/C runs as follows: (dose: 3.75 mg/kg/injection, schedule: Q04DX003 (ip), vehicle: saline) 24 % of control; (dose: 6.25 mg/kg/injection, schedule: Q04DX003 (ip), vehicle: saline) 32 % of control; (dose: 7.5 mg/kg/injection, schedule: Q04DX003 (ip), vehicle: saline with Tween-80) 64 % of control; (dose: 7.5 mg/kg/injection, schedule: Q04DX003 (ip), vehicle: saline) 73 % of control; under setting [4], 76 % of control; (dose: 15.0 mg/kg/injection, schedule: Q04DX003 (ip), vehicle: saline with Tween-80) 57 % of control. The T/C by setting is: under setting [5], 59 % of control; under setting [1], 33 % of control; (dose: 30.0 mg/kg/injection, schedule: Q04DX003 (ip), vehicle: saline with Tween-80) 59 % of control; under setting [6], 39 % of control; under setting [2], 52 % of control; under setting [7], 17 % of control.
